Measured values from US20230235378A1, “LZHEIMER'S DISEASE-SPECIFIC ALTERATIONS OF PROTEIN KINASE C EPSILON (PKC-EPSILON PROTEIN LEVELS” (WEST VIRGINIA UNIVERSITY BOARD OF GOVERNORS ON BEHALF OF …, priority 2010, published 2023).
Values belong to the compound of their own block, whether it stands above or below them.

Legend:
PKC [1] = test: PKC activity in cultured rat hippocampal H19-7/IGF-IR cells; assay type: cell-based; details: 8 h; data not shown
Method: Cell Culture. Rat hippocampal H19-7/IGF-IR cells (ATCC, Manassas, Va.) were plated onto poly-L-lysine coated plates and grown at 35° C. in DMEM/10% FCS for several days until about 50% coverage was obtained. The cells were then induced to differentiate into a neuronal phenotype by replacing the medium with 5 ml N2 medium containing 10 ng/ml basic fibroblast growth factor at 39° C. and grown in T-75 flasks at 37° C. Human SH-SY5Y neuroblastoma cells (ATCC) were cultured in 45% F 12K/45% MEM/10% FCS. Mouse N2A neuroblastoma cells were cultured in DMEM/10% FCS without glutamine. Rat hippocampal neurons from 18-day-old embryonic
(§1) Protein Kinase C Assay. Rat hippocampal cells were cultured and scraped in 0.2 ml homogenization buffer (20 mM Tris-HCl, pH 7.4, 50 mM NaF, 1 μg/ml leupeptin, and 0.1 mM PMSF) and homogenized by sonication in a Marsonix micro-probe sonicator (5 sec, 10 W). To measure PKC, 10 μl of cell homogenate or purified PKC isozyme (purchased from Calbiochem) was incubated for 15 min at 37° C. in the presence of 10 μM histones, 4.89 mM CaCl2, 1.2 μg/μl phosphatidyl-L-serine, 0.18 μg/μl 1,2-dioctanoyl-sn-glycerol, 10 mM MgCl2, 20 mM HEPES (pH 7.4), 0.8 mM EDTA, 4 mM EGTA, 4% glycerol, 8 μg/ml aprotinin, 8 μg/ml leupeptin, and 2 mM benzamidine. 0.5 μCi [γ-32P]ATP was added and 32P-phosphoprotein formation was measured by adsorption onto phosphocellulose as described previously. Nelson and Alkon, J. Neurochemistry. 1995; 65: 2350-57. For measurements of activation by BR-101 (DCP-LA) and similar compounds, PKC activity was measured in the absence of diacylglycerol and phosphatidylserine, as described by Kanno et al., and PKC δ, ε, η, and were measured in the absence of added EGTA and CaCl2, as described by Kanno et al., J. Lipid Res. 2006; 47: 1146-50. Low concentrations of Ca2+ are used because high Ca2+ interacts with the PKC phosphatidylserine binding site and prevents activation. For measurements of bryostatin activation, 1,2-diacylglycerol was omitted unless otherwise stated.
PKC activators that bind to the diacylglycerol binding site, including bryostatin, gnidimacrin, and phorbol esters, produce a transient activation of PKC activity, followed by a prolonged downregulation. Nelson et al., Trends in Biochem. Sci. 2009; 34: 136-45. This was confirmed in cultured rat hippocampal cells. Incubation of rat 1119-7/IGF-IR cells with (0.04 nM and 0.2 nM) bryostatin produced a 2-fold activation that lasted 30 min, followed by a 20% downregulation that returned to baseline by 24 h (data not shown). […] This sustained activation was only observed in primary neurons.

PKC [2] = details: read-out: EC50 (affinity for PKC); cited from earlier work
purified PKC = biological target: T1, purified PKC (Homo sapiens, UniProt Q02156); test: PKC isozyme specificity: purified PKC preincubated with compound, activity measured radiometrically; assay type: biochemical; details: for concentration needed to activate PKC, relative to BR-101 (DCP-LA): compared with BR-101 (DCP-LA); for activation of purified PKC: used as methyl esters
T1 construct: purchased Calbiochem
T1 sequence (Q02156 1-737): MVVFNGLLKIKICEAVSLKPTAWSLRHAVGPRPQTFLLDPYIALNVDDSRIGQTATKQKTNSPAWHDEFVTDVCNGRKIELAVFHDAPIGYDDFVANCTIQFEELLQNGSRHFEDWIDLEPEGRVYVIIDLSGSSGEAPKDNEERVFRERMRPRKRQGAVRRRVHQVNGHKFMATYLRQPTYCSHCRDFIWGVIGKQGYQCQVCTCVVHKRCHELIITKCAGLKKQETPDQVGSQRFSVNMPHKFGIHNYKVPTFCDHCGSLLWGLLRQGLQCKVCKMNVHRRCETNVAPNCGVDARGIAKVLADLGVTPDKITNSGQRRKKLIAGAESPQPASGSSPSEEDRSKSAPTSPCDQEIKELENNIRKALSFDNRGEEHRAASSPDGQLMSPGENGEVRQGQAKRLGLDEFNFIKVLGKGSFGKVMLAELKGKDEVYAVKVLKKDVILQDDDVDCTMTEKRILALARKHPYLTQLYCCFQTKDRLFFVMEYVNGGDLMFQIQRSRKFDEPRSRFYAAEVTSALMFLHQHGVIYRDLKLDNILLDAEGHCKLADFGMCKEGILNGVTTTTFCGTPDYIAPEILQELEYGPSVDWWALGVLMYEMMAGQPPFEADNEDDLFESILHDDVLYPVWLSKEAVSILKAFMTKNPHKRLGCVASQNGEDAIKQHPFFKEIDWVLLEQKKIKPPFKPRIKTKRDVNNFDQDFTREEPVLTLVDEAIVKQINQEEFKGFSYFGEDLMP
Method: as §1
To determine their PKC isozyme specificity, the new compounds were preincubated with purified PKC for five minutes and the PKC activity was measured radiometrically.

PKC-ε = PKC-ε level in skin fibroblasts treated with oligomeric Aß1-42 (western blot); assay type: cell-based, human
Method: Immunoblot Analysis: Protein lysates (20 μg of protein each) were boiled in 2× Laemmli buffer for 10 min and separated using a 4-20% gradient Tris-Glycine gels. Separated proteins were transferred to nitrocellulose membrane and the membrane was blocked in BSA at room temperature (RT) for 15 min and incubated with 1:2000 dilution anti-PKC-ε rabbit polyclonal antibody (Santa Cruz Biotechnology, Santa Cruz, Calif.; Cat No: sc-214), and 1:5000 dilution anti-ß-tubulin, class III rabbit monoclonal antibody (Millipore Corporation, Billerica Mass., Cat No: 04-1049) for 1 hr at RT. After the incubation, the membrane fractions were washed 3× with standard western blot washing buffer and further incubated with alkaline phosphatase conjugated secondary antibody (Jackson Immunoresearch Laboratories, USA) at 1:10000 dilution for 45 min. The membrane fractions were finally washed 3× with standard western blot washing buffer and developed using the 1-step NBT-BCIP substrate (Thermo Scientific, Rockford, Ill.). Signal intensities of the images were recorded in the ImageQuant RT-ECL (GE Life Sciences, Piscataway, N.J.) and densitometric quantification was performed using the IMAL software (Blanchette Rockefeller Neurosciences Institute, Morgantown, W. Va.). Intensities quantified in this way, for PKC-ε were normalized against ß-tubulin for each lane.
Preparation of Soluble Oligomeric Aß: Oligomeric Aß was prepared following the method described by Noguchi et al., (2009). Aß generated by this method was reported to be highly neurotoxic, 10-15 nm spherical Aß assemblies termed as amylospheroids (ASPDs). […]
Treatment of skin fibroblasts with oligomeric Aß1-42: Skin fibroblasts both from AD and AC cases were cultured for 7 days to 100% confluence. […] The resulting band intensities for PKC-ε were quantified using ImageQuant RT-ECL (GE Life Sciences, USA) and densitometric analysis was performed using the IMAL software (Blanchette Rockefeller Neurosciences Institute, Morgantown, W. Va.).

Aß = details: 1 μM, 8 h, cultured COS cells; cited from earlier work

effect on PKC (purified PKC): little or no effect
Compound: epoxystearic acid [BR-116]

effect on PKC (purified PKC): little or no effect
Compound: Linolenyl alcohol cyclpropanated [BR-104]

concentrations at which PKC was inhibited (purified PKC): above 1 μM
Compound: Vernolic acid cyclopropanated methyl ester [BR-109]

effect on PKC (purified PKC): little or no effect
Compound: Linoleic alcohol cyclopropanated [BR-105]

concentration needed to activate PKC, relative to BR-101 (DCP-LA) (purified PKC): approx. 100 times lower
Compound: CCC1CC1CC1CC1CC1CC1CC1CC1CC1CC1CCCC(=O)OC (stereo not drawn) [BR-114]
activation of purified PKC (purified PKC): activated purified PKC to a similar extent

Continued, compound first:

Compound: CCCCCCCCCCCCCC(=O)O[C@@H]1[C@@H](C)[C@@]2(O)[C@@H](C=C(CO)C[C@]3(O)C(=O)C(C)=C[C@@H]23)[C@@H]2C(C)(C)[C@]12OC(C)=O [PMA, phorbol 12-myristate 13-acetate]
downregulation of PKC activity (PKC [1]): strongly downregulated

Compound: Soluble Aß oligomer: soluble >100 kDa oligomers (amylospheroids) prepared from synthetic Aß1-42 by the method of Noguchi et al.
PKC-ε in age-matched control (AC) skin fibroblasts (PKC-ε; 500 nM, 24 hrs, five AC cases): decreases
PKC-ε in AD skin fibroblasts (PKC-ε; 500 nM, 24 hrs, five AD cases): did not show decrease in expression
AC-AD ratio of normalized PKC-ε in treated cells (PKC-ε; untreated cells 1.4): ~1

Compound: CCCCCC1CC1CC1CC1CC1CC1CC1CC1CCCC(=O)OC (stereo not drawn) [BR-115, methyl 4-(2-((2-((2-((pentylcyclopropyl)methyl)cyclopropyl)methyl)cyclopropyl)methyl)cyclopropyl)butanoate methyl ester]
concentration needed to activate PKC, relative to BR-101 (DCP-LA) (purified PKC): approx. 100 times lower
activation of purified PKC (purified PKC): activated purified PKC to a similar extent

Compound: CCCCCC1OC1C/C=C\CCCCCCCC(=O)OC (stereo in doubt) [BR-117, vernolic acid methyl ester]
effect on PKC (purified PKC): little or no effect

Compound: CCCC(=O)O[C@@H]1[C@@H](C)[C@@]2(O)[C@@H](C=C(CO)C[C@]3(O)C(=O)C(C)=C[C@@H]23)[C@@H]2C(C)(C)[C@]12OC(=O)CCC [PdBu, Phorbol-12,13-dibutyrate]
change in Aß (Aß): increase in Aß
